Data reported in patent US20260250337A1, “HYBRID ANTIMICROBIAL PEPTIDES” (UNIVERSIDADE FEDERAL DO ABC, priority 2023, published 2026).
No end group written: not given here.

Legend:
M. luteus A270 = assay: Liquid growth inhibition assay, MIC; type: cell-based, Micrococcus luteus; settings: 37° C., 18 h
Protocol: (§1) Initially, the antimicrobial activity was determined by liquid growth inhibition assays, as previously described by Pedron et al.^62. Briefly, Peptone Broth and Potato Dextrose Broth (Invitrogen) were used for antibacterial and antifungal assays, respectively. Two-fold serial dilutions of peptides (0.09-50 μmol L^−1) and microorganisms (Serratia marcescens ATCC 4112, Enterobacter cloacae β-12, Micrococcus luteus A270, Bacillus megaterium ATCC 10778, Bacillus subtilis ATCC 6633, Candida albicans MDM8, and Candida tropicalis IOC 4560) were incubated at 37° C. for 18 h (for bacteria) or 24 h (for fungi), and microbial growth was assessed by absorbance measurements at 595 nm. Experiments were performed in three biological repeats.

[1] = test system: S. epidermidis ATCC 12228; assay: Liquid growth inhibition assay, MIC; type: cell-based; settings: 37° C., 18 h
B. megaterium ATCC 10778 = assay: Liquid growth inhibition assay, MIC; type: cell-based, Bacillus megaterium; settings: 37° C., 18 h
Protocol: as §1

S. marcescens ATCC 4112 = assay: Liquid growth inhibition assay, MIC; type: cell-based, Serratia marcescens; settings: 37° C., 18 h
Protocol: as §1

E. cloacae β-12 = assay: Liquid growth inhibition assay, MIC; type: cell-based, Enterobacter cloacae; settings: 37° C., 18 h
Protocol: as §1

C. albicans MDM8 = assay: Liquid growth inhibition assay, MIC (antifungal); type: cell-based, Candida albicans; settings: 37° C., 24 h
Protocol: as §1

C. tropicalis IOC 4560 = assay: Liquid growth inhibition assay, MIC (antifungal); type: cell-based, Candida tropicalis; settings: 37° C., 24 h
Protocol: as §1

human erythrocytes = assay: Hemolytic activity assay; type: cell-based; settings: human erythrocytes, 1 h; for MHC: room temperature, concentration with approximately 0% of hemolytic activity
Protocol: Method. Assays against freshly collected human erythrocytes were performed following protocols described by Pedron et al. 62. Briefly, peptide aliquots at concentrations ranging from 0.1 to 100 μmol L−1 were incubated with a suspension of erythrocytes at room temperature for 1 h. The samples were then centrifuged, and the absorbance of the supernatant was measured at 405 nm. The MHC (maximal non-hemolytic concentration) was determined as the maximal concentration at which 100% of the erythrocytes were viable. The surfactant SDS and PBS buffer were used as positive88, 89 and negative controls, respectively. Sodium heparin was used as an anticoagulant when collecting human blood. Three biological repeats were performed.

[2] = test system: Plasmodium gallinaceum sporozoites; assay: Antiplasmodial activity, fluorescence microscopy; type: cell-based; settings: for P. gallinaceum (% sporozoites at 0.8 μmol L^−1): fluorescent (propidium iodide stained) sporozoites, 37° C., 1 h; for antiplasmodial activity: P. gallinaceum sporozoites, concentration range tested
Protocol: Method. The activity of the peptides against Plasmodium gallinaceum sporozoites was determined by fluorescence microscopy, as previously described by Silva et. al.^83. Briefly, 9,000 sporozoites were isolated from the glands of infected Aedes aegypti mosquitos and incubated with serially diluted peptides (ranging from 0.1 to 1.6 μmol L^−1) at 37° C. for 1 h. A PBS solution and the surfactant digitonin^84, 85 were used as negative and positive controls, respectively. Propidium iodide was used to stain dead cells. Assays were executed using fluorescence microscopy. Three biological repeats each with three different mosquito batches (n=9) were used.

A. baumannii ATCC19606 = assay: Broth microdilution MIC, ESKAPE pathogens; type: cell-based; settings: LB, 37° C., 24 h
Protocol: (§2) Method. The minimal inhibitory concentration (MIC) against the ESKAPE pathogens was determined using the broth microdilution method^81, 82 in Luria-Bertani (LB) medium. The MIC value was defined as the lowest concentration of peptide at which no microbial growth was observed. A. baumannii ATCC19606, E. coli ATCC11775, E. coli AIC221, E. coli AIC222, K. pneumoniae ATCC13883, S. aureus ATCC12600 P. aeruginosa PAO1, and P. aeruginosa PA14 were incubated on agar plates, and after 24 h, three isolated colonies were inoculated to 5 mL of Luria-Bertani (LB) broth and maintained at 37° C. overnight with shaking. Peptides were then added to 96-well polystyrene microtiter plates at concentrations ranging from 0 to 128 μmol L^−1, and 5×10^5 CFU mL^−1 of each bacterium was inoculated in each well. The plates were incubated at 37° C. for 24 h. Bacterial growth was measured using a microplate reader at 610 nm. Three independent replicates were performed.

E. coli AIC221 = assay: Broth microdilution MIC, ESKAPE pathogens; type: cell-based; settings: LB, 37° C., 24 h
Protocol: as §2

E. coli AIC222 = assay: Broth microdilution MIC, ESKAPE pathogens; type: cell-based; settings: LB, 37° C., 24 h
Protocol: as §2

E. coli ATCC11775 = assay: Broth microdilution MIC, ESKAPE pathogens; type: cell-based; settings: LB, 37° C., 24 h
Protocol: as §2

K. pneumoniae ATCC13883 = assay: Broth microdilution MIC, ESKAPE pathogens; type: cell-based; settings: LB, 37° C., 24 h
Protocol: as §2

P. aeruginosa PA14 = assay: Broth microdilution MIC, ESKAPE pathogens; type: cell-based; settings: LB, 37° C., 24 h
Protocol: as §2

P. aeruginosa PAO1 = assay: Broth microdilution MIC, ESKAPE pathogens; type: cell-based; settings: LB, 37° C., 24 h
Protocol: as §2

S. aureus ATCC12600 = assay: Broth microdilution MIC, ESKAPE pathogens; type: cell-based; settings: LB, 37° C., 24 h
Protocol: as §2

[3] = Circular dichroism, helical fraction (Lifson-Roig); type: physicochemical; settings: peptide 50 μmol L^−1; for Helical fraction (fH) PBS: PBS 10 mmol L^−1, pH 7.4; for Helical fraction (fH) POPC: POPC 10 mmol L^−1; for Helical fraction (fH) POPC:DOPE: POPC:DOPE 3:1, mol:mol; for Helical fraction (fH) POPC:DOPE / Helical fraction (fH) POPC:POPG: 10 mmol L^−1; for Helical fraction (fH) POPC:POPG: POPC:POPG 3:1, mol:mol; for Helical fraction (fH) SDS: SDS 20 mmol L^−1 in water; for Helical fraction (fH) TFE/Water: TFE in water (3:2, v:v)
Protocol: Method. Circular dichroism (CD) assays were performed with a Spectropolarimeter Jasco Mod. J-815 (JascoCorp). CD spectra were obtained in Far-UV (195-260 nm), and analyzed in the following solutions: water, 2,2,2-trifluoroethanol (TFE) in water (3:2, v:v), phosphate buffer saline (PBS, 10 mmol L^−1, pH 7.4), sodium dodecyl sulfate (SDS 20 mmol L^−1) in water, palmitoyloleoylphosphatidylcholine (POPC; 10 mmol L^−1), palmitoyloleoylphosphatidylcholine:dioleylphosphatidylethanolamine (POPC:DOPE; 3:1, mol:mol, 10 mmol L^−1) and palmitoyloleoylphosphatidylcholine:palmitoyloleoylphosphatidylglycerol (POPC:POPG; 3:1, mol:mol, 10 mmol L^−1) at a peptide concentration of 50 μmol L^−1. These experiments were performed as described in detail by Pedron et al.^62.

| Substance | MIC M. luteus A270 (M. luteus A270) [µM] | MIC S. epidermidis ATCC 12228 [1] [µM] | MIC B. megaterium ATCC 10778 (B. megaterium ATCC 10778) [µM] | MIC S. marcescens ATCC 4112 (S. marcescens ATCC 4112) [µM] | MIC E. cloacae β-12 (E. cloacae β-12) [µM] | MIC C. albicans MDM8 (C. albicans MDM8) [µM] | MIC C. tropicalis IOC 4560 (C. tropicalis IOC 4560) [µM] | MHC (human erythrocytes) [µmol/L] | P. gallinaceum (% sporozoites at 0.8 μmol L^−1) [2] [%] | MIC A. baumannii ATCC19606 (A. baumannii ATCC19606) [µM] | MIC E. coli AIC221 (E. coli AIC221) [µM] | MIC E. coli AIC222 (E. coli AIC222) [µM] | MIC E. coli ATCC11775 (E. coli ATCC11775) [µM] | MIC K. pneumoniae ATCC13883 (K. pneumoniae ATCC13883) [µM] | MIC P. aeruginosa PA14 (P. aeruginosa PA14) [µM] | MIC S. aureus ATCC12600 (S. aureus ATCC12600) [µM] | Helical fraction (fH) PBS [3] | Helical fraction (fH) POPC [3] | Helical fraction (fH) POPC:DOPE [3] | Helical fraction (fH) POPC:POPG [3] | other results |
| --- | --- | --- | --- | --- | --- | --- | --- | --- | --- | --- | --- | --- | --- | --- | --- | --- | --- | --- | --- | --- | --- |
| FLGAIGNVLKSIL-NH2 [TV, Phe-Leu-Gly-Ala-Ile-Gly-Asn-Val-Leu-Lys-Ser-Ile-Leu] | 6.3 | >50 | 6.3 | 6.3 | >50 | 25 | 3.1 | 0.2 | 83 | 16 | 16 | 8 | 32 | 16 | 128 | 16 | 0.04 | 0.12 | 0.35 | 0.06 | Hemolytic activity, concentration of peptide needed to kill 10% of red blood cells (human erythrocytes): 0.2 µmol/L; antiplasmodial activity [2]: exhibited antiplasmodial activity; MIC P. aeruginosa PAO1 (P. aeruginosa PAO1): 128 µM; Helical fraction (fH) SDS [3]: 0.28; Helical fraction (fH) TFE/Water [3]: 0.50; Helical fraction (fH) Water [3]: 0.04 |
| FLGALWNVAKSVF-NH2 [VmCT1, Phe-Leu-Gly-Ala-Len-Trp-Asu-Val-Ala-Lys-Ser-Val-Phe, reference compound] | 0.8 | 3.1 | 1.6 | 0.4 | >50 | 12.5 | 12.5 | 6.3 | 93 | 8 | 32 | 16 | 16 | 64 | 128 | 8 | 0.03 | 0.42 | 0.55 | 0.25 | MIC P. aeruginosa PAO1 (P. aeruginosa PAO1): 128 µM; Helical fraction (fH) SDS [3]: 0.17; Helical fraction (fH) TFE/Water [3]: 0.30; Helical fraction (fH) Water [3]: 0.05 |
| FLPLIGRVLSGIL-NH2 [Temporin A, Phe-Leu-Pro-Leu-Ile-Gly-Arg-Val-Leu-Ser-Gly-Ile-Leu, reference compound] | 3.1 | >50 | 6.3 | 12.5 | >50 | 25 | 12.5 | 0.2 | 15 | 32 | 128 | 32 | 64 | 128 | 128 | 8 | 0.07 | 0.31 | 0.44 | 0.19 | Hemolytic activity, concentration of peptide needed to kill 10% of red blood cells (human erythrocytes): 0.2 µmol/L; antiplasmodial activity [2]: no activity; MIC P. aeruginosa PAO1 (P. aeruginosa PAO1): 128 µM; Helical fraction (fH) SDS [3]: 0.47; Helical fraction (fH) TFE/Water [3]: 0.65; Helical fraction (fH) Water [3]: 0.08 |
| ILGAILNVLKSLG-NH2 [PV, Ile-Leu-Gly-Ala-Ile-Leu-Asn-Val-Leu-Lys-Ser-Leu-Gly] | 3.1 | >50 | 12.5 | 12.5 | >50 | 12.5 | 6.3 | 25 | 41 | 32 | 32 | 16 | 32 | 64 | 128 | 16 | 0.08 | 0.44 | 0.28 | 0.63 | Hemolytic activity, concentration of peptide needed to kill 10% of red blood cells (human erythrocytes): 25 µmol/L; Helical fraction (fH) SDS [3]: 0.60; Helical fraction (fH) TFE/Water [3]: 0.68; Helical fraction (fH) Water [3]: 0.13 |
